Patent publication US6043386A, “Non-calcemic, antiproliferative, transcriptionally active 24-fluorinated hybrid analogs of 1α,-25-dihydroxy vitamin D3” (John Hopkins University, priority 1999, dated 2000)

Legend:
murine keratinocytes = test: in vitro antiproliferative activity in murine keratinocytes (FIG. 1); type: cell-based; details: for antiproliferative activities: 1α,3β vs. 1β,3α diastereomers; for antiproliferative activity relative to 1,25D3: even at physiologically relevant 7 nM concentrations
Method: Each of these new hybrid analogs (Structures 3 and 4 of Scheme I) is evaluated initially for in vitro antiproliferative activity in murine keratinocytes, using the protocol described in Posner et al., J. Med. Chem. 1992, 35, pp. 3280-3287. The procedure utilized is described as follows:
(§1) Murine B16 malignant melanoma cells are grown and propagated in RPMI medium supplemented with 10% fetal bovine serum, L-glutamine, penicillin, and streptomycin and incubated at 37° C. in 5% CO2. For proliferation studies, cells are washed with PBS, trypsinized, and suspended in 8 ml of supplemented RPMI medium. The cell density is then determined using a hemacytometer and cells are resuspended in RPMI at 10,000 cells/cm^3. One ml of cell suspension (10,000 cells) is added to each well of a Falcon 24 Well Flat Bottom Tissue Culture Plate (Becton-Dickinson, Lincoln Park, N.J.). Plates are incubated for 24 hours to allow for cell attachment. The medium is then removed and replaced with fresh RPMI medium containing either 0.4% solvent (isopropanol) or vitamin D analog at concentrations ranging from 1-1000 nM in triplicate. When control wells near confluence, cells are washed with PBS, trypsinized, and suspended in 10 ml of Isoton II Coulter Balanced EIectrolyte Solution in FISHERbrand Dilu-Vial cuvettes. Cell number is then determined for each well as an average of two readings on a ZM Coulter Counter. Results are expressed as the average cell number for each vitamin D analog treatment group divided by the intital cell number (N/N0). The average standard deviation of the N/N0 cell number measurements was 0.21 in FIG. 1 and 2.1 in FIG. 2.

[1] = test system: Murine B16 malignant melanoma cells; test: Antiproliferative assays using malignant melanoma cells (FIG. 2); type: cell-based; details: even at 1 nM concentration
Method: Antiproliferative assays using malignant melanoma cells
as §1, with “The average standard deviation of the N/N0 cell number measurements was 0.21 in FIG. 1 and 2.1 in FIG. 2.” left out

Male F344 rats = test: Determination of urinary calcium levels / hypercalcemic effects in vivo (FIG. 3); design: species or system rat; details: 1 microgram per kg per os, seven consecutive days
Method: Because of their high antiproliferative and transcriptional activities in vitro, fluorinated hybrid analogs, Structures 3b and 4b, are evaluated for hypercalcemic effects in vivo. The procedure utilized is described as follows:
Determination of urinary calcium levels.
(§2) Male F344 rats (150 g) are housed individually in glass metabolism cages and received food and water ad libitum. After several days acclimation, rats receive 1 microgram per kg body weight of test compound per os for seven consecutive days in 150 microliters of propylene glycol/0.05M Na2 HPO4 (80:20). Urine samples, which are collected on ice, were centrifuged at 650×g for 10 min, adjusted to pH 6.0 as necessary, and assayed for calcium content spectrophotometrically at 575 nm using reagents and standards from Sigma Calcium Kit #587.

vitamin D receptor = test: in vitro vitamin D receptor-mediated transcriptional activity in ROS 17/2.8 cells (growth hormone reporter); type: cell-based; details: 48 h, rat osteosarcoma ROS 17/2.8 cells, vitamin D responsive element of human osteocalcin gene, 2 days, read-out: ED50 (transcriptional potency)
Method: The procedure utilized is described as follows:
Transfections and transcriptional activity of the analogs.
Rat osteosarcoma ROS 17/2.8 cells are maintained in 50% Dulbecco's modified Eagle medium (DMEM) and 50% F12 nutrient mixture supplemented with 10% fetal bovine serum. Forty eight hours before transfections, the cells are plated in 35-mm dishes at a density of 10^5 /dish in DMEM and 10% fetal bovine serum. ROS 17/2.8 cells are transfected with 2 μg of plasmid containing the vitamin D responsive element from the human osteocalcin gene ([…]) attached to the thymidine kinase promoter/growth hormone fusion gene. […] Medium samples for measurements of reporter gene expression (growth hormone) are collected 2 days after transfection. Growth hormone is measured by a radioimmunoassay as described by the manufacturer (Nichols Institute, San Juan Capistrano, Calif.).

[2] = body weight gain in rats treated daily for one week; type: in vivo, rat; details: 1 microgram per kg per os, seven consecutive days
Method: as §2

Row | Structure (SMILES) | antiproliferative activities (murine keratinocytes) | antiproliferative potency relative to 1,25D3 [1] | calcium excretion into the urine (Male F344 rats) | EC50 (vitamin D receptor) | antiproliferative activity relative to 1,25D3 (murine keratinocytes) | suppression of body weight gain [2]
1 | C=C1/C(=C\C=C2/CCC[C@]3(C)C([C@H](C)CCC(F)(F)C(C)(C)O)=CC[C@@H]23)C[C@@H](O)C[C@@H]1CO [Structure 3a] | much less potent | – | – | – | – | –
2 | C=C1/C(=C\C=C2/CCC[C@]3(C)C([C@H](C)CCC(F)(F)C(C)(C)O)=CC[C@@H]23)C[C@H](O)C[C@H]1CO [Structure 3b] | significant antiproliferative activities | more potent antiproliferative agents than 1,25D3 | no calcium elevation above control | 0.2 nM | at least equal to that of 1,25D3 | not observed
3 | C=C1/C(=C\C=C2/CCC[C@]3(C)C([C@H](C)CCC(F)(F)C(O)(CC)CC)=CC[C@@H]23)C[C@@H](O)C[C@@H]1CO [Structure 4a] | much less potent | – | – | – | – | –
4 | C=C1/C(=C\C=C2/CCC[C@]3(C)C([C@H](C)CCC(F)(F)C(O)(CC)CC)=CC[C@@H]23)C[C@H](O)C[C@H]1CO [Structure 4b] | significant antiproliferative activities | more potent antiproliferative agents than 1,25D3 | no calcium elevation above control | 0.05 nM | at least equal to that of 1,25D3 | not observed
5 | C=C1/C(=C\C=C2/CCC[C@]3(C)[C@@H]([C@H](C)CCCC(C)(C)O)CC[C@@H]23)C[C@@H](O)C[C@@H]1O [calcitriol, 1α,25-dihydroxy vitamin D3, reference compound] | – | – | marked excretion of calcium into the urine | – | – | suppression of body weight gain
